Test results published in article PMC2847825 (Biological chemistry, 2009).

Molecular target: T1, phenylalanine hydroxylase (Rattus norvegicus, UniProt P04176)
T1 sequence (P04176 2-453): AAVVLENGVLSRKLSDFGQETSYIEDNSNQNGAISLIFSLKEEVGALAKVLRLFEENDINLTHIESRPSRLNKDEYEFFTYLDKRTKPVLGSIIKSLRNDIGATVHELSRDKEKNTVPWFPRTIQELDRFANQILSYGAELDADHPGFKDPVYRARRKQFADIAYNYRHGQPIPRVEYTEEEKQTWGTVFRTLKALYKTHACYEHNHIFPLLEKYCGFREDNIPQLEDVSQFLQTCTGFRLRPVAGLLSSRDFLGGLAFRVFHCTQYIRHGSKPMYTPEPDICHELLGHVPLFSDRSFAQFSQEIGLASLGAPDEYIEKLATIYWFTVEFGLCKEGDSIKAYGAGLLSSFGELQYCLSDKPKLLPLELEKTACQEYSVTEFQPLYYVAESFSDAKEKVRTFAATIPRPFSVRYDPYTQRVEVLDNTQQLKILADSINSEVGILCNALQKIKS
Assay: recombinant enzyme activity, HPLC detection of tyrosine
Type: biochemical

## c1cnc2c(c1)ccc1cccnc12 [1,10-phenanthroline]
  recombinant enzyme activity, HPLC detection of tyrosine: 0.01 mM
